These results are taken from BindingDB's records for PubMed 35202969 (Maharishi Markandeshwar (Deemed To Be University), 2022).

The data set has as its target CYP3A4 (Homo sapiens, UniProt P08684). Put plainly: Inhibition of CYP3A4 in human liver microsomes using midazolam as substrate. Conditions: probe midazolam. In general terms: Liver microsomes are vesicles of endoplasmic reticulum, rich in cytochrome P450 enzymes.

pKi: −log10 of the molar value.

Sequence of CYP3A4 (P08684 whole entry): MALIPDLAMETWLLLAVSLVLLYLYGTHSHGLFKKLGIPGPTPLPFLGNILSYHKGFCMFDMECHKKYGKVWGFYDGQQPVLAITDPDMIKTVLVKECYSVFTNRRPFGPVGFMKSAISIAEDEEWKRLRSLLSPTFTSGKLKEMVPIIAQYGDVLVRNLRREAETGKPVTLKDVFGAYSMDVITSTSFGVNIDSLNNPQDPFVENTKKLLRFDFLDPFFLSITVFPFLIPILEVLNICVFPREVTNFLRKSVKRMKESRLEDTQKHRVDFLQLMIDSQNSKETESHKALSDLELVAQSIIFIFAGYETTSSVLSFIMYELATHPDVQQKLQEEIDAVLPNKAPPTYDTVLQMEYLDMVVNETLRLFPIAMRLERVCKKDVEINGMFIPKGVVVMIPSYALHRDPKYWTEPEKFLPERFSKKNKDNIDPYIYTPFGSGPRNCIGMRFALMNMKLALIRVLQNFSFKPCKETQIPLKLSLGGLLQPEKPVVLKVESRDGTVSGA

The compound `COc1c(N2CC[C@@H](C3(N)CC3)C2)ccc2c(=O)c(C(=O)O)cn([C@@H]3C[C@@H]3F)c12` [DX-619] had a pKi of 4.17.

As a reminder, the pKi is the Ki on a negative log10 scale, so that one unit is a factor of ten. Low values mean a high Ki, high ones a low Ki.
